Measurements published in patent US8580794B2 (AbbVie Inc., priority 2009, dated 2013).

What follows are compounds tested against GST-Bc1-2 (Homo sapiens, UniProt P10415) (assay: Time Resolved-Fluorescence Resonance Energy Transfer (TR-FRET) Bcl-2 binding assay with F-Bak peptide probe). Settings: GST-Bcl-2 1 nM, F-Bak probe 100 nM, Tb-anti-GST 1 nM; '<' = below limit of detection; read-out: TR-FRET Bcl-2 Binding Ki.
GST-Bc1-2, sequence (P10415 whole entry): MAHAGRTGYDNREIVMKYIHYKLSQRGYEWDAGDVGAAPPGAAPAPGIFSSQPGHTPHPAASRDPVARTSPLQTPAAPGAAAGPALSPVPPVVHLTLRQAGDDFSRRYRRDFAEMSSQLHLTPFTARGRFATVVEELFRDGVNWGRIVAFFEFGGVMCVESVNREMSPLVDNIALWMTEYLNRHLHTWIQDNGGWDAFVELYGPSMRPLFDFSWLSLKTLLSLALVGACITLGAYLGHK

Which Ki does the source give for `CN(C)CC(=O)N1CCO[C@H](COc2ncc(S(=O)(=O)NC(=O)c3ccc(N4CCN(CC5=C(c6ccc(Cl)cc6)CC(C)(C)CC5)CC4)cc3Oc3cnc4[nH]ccc4c3)cc2Cl)C1` [Example 245, N-[(5-chloro-6-{[(2S)-4-(N,N-dimethylglycyl)morpholin-2-yl]methoxy}pyridin-3-yl)sulfonyl]-4-(4-{[2-(4-chlorophenyl)-4,4-dimethylcyclohex-1-en-1-yl]methyl}piperazin-1-yl)-2-(1H-pyrrolo[2,3-b]pyridin-5-yloxy)benzamide] here?
The Ki was 15 pM.

With `CC1(C)CCC(CN2CCN(c3ccc(C(=O)NS(=O)(=O)c4cnc5c(c4)nnn5CC4CCOCC4)c(Oc4cnc5[nH]ccc5c4)c3)CC2)=C(c2ccc(Cl)cc2)C1` [Example 370, 4-(4-{[2-(4-chlorophenyl)-4,4-dimethylcyclohex-1-en-1-yl]methyl}piperazin-1-yl)-2-(1H-pyrrolo[2,3-b]pyridin-5-yloxy)-N-{[3-(tetrahydro-2H-pyran-4-ylmethyl)-3H-[1,2,3]triazolo[4,5-b]pyridin-6-yl]sulfonyl}benzamide] as the compound, how does the Ki read?
Its Ki is 285 pM.

`CC1(C)CCC(CN2CCN(c3ccc(C(=O)NS(=O)(=O)c4ccc(NCCC(F)(F)F)c([N+](=O)[O-])c4)c(Oc4cnc5[nH]ccc5c4)c3)CC2)=C(c2ccc(Cl)cc2)C1` [Example 27, 4-(4-{[2-(4-chlorophenyl)-4,4-dimethylcyclohex-1-en-1-yl]methyl}piperazin-1-yl)-N-({3-nitro-4-[(3,3,3-trifluoropropyl)amino]phenyl}sulfonyl)-2-(1H-pyrrolo[2,3-b]pyridin-5-yloxy)benzamide] was tested. Which Ki did it give?
Its Ki is 134 pM.

Which Ki does the source give for `CN1CC(Nc2ccc(S(=O)(=O)NC(=O)c3ccc(N4CCN(CC5=C(c6ccc(Cl)cc6)CC(C)(C)CC5)CC4)cc3Oc3cnc4[nH]ccc4c3)cc2[N+](=O)[O-])CC1=O` (centres unmarked) [Example 202, 4-(4-{[2-(4-chlorophenyl)-4,4-dimethylcyclohex-1-en-1-yl]methyl}piperazin-1-yl)-N-({4-[(1-methyl-5-oxopyrrolidin-3-yl)amino]-3-nitrophenyl}sulfonyl)-2-(1H-pyrrolo[2,3-b]pyridin-5-yloxy)benzamide] here?
The Ki was less than 10 pM.

How did the Ki turn out when `CC1(C)CCC(CN2CCN(c3ccc(C(=O)NS(=O)(=O)c4ccc(OCC5(F)CCOCC5)c(C#N)c4)c(Oc4cnc5[nH]ccc5c4)c3)CC2)=C(c2ccc(Cl)cc2)C1` [Example 299, 4-(4-{[2-(4-chlorophenyl)-4,4-dimethylcyclohex-1-en-1-yl]methyl}piperazin-1-yl)-N-({3-cyano-4-[(4-fluorotetrahydro-2H-pyran-4-yl)methoxy]phenyl}sulfonyl)-2-(1H-pyrrolo[2,3-b]pyridin-5-yloxy)benzamide] was run?
The Ki was 39 pM.

`CO[C@H]1CC[C@H](COc2ccc(S(=O)(=O)NC(=O)c3ccc(N4CCN(CC5=C(c6ccc(Cl)cc6)CC(C)(C)CC5)CC4)cc3Oc3cnc4[nH]ccc4c3)cc2[N+](=O)[O-])CC1` [Example 125, Trans-4-(4-{[2-(4-chlorophenyl)-4,4-dimethylcyclohex-1-en-1-yl]methyl}piperazin-1-yl)-N-({4-[(4-methoxycyclohexyl)methoxy]-3-nitrophenyl}sulfonyl)-2-(1H-pyrrolo[2,3-b]pyridin-5-yloxy)benzamide] was tested. Which Ki did it give?
The Ki was less than 10 pM.

Which Ki does the source give for `CC1(C)CCC(CN2CCN(c3ccc(C(=O)NS(=O)(=O)c4cnc(OC5CCN(C6CCOCC6)CC5)c(C#N)c4)c(Oc4cnc5[nH]ccc5c4)c3)CC2)=C(c2ccc(Cl)cc2)C1` [Example 84, 4-(4-{[2-(4-chlorophenyl)-4,4-dimethylcyclohex-1-en-1-yl]methyl}piperazin-1-yl)-N-({5-cyano-6-[(1-tetrahydro-2H-pyran-4-ylpiperidin-4-yl)oxy]pyridin-3-yl}sulfonyl)-2-(1H-pyrrolo[2,3-b]pyridin-5-yloxy)benzamide] here?
Its Ki is 123 pM.

Which Ki does the source give for `CC1(C)CCC(CN2CCN(c3ccc(C(=O)NS(=O)(=O)c4ccc(NCC5CN(C6COC6)C5)c([N+](=O)[O-])c4)c(Oc4cnc5[nH]ccc5c4)c3)CC2)=C(c2ccc(Cl)cc2)C1` [Example 162, 4-(4-{[2-(4-chlorophenyl)-4,4-dimethylcyclohex-1-en-1-yl]methyl}piperazin-1-yl)-N-[(3-nitro-4-{[(1-oxetan-3-ylazetidin-3-yl)methyl]amino}phenyl)sulfonyl]-2-(1H-pyrrolo[2,3-b]pyridin-5-yloxy)benzamide] here?
Its Ki is less than 10 pM.

With `CC1(C)CCC(CN2CCN(c3ccc(C(=O)NS(=O)(=O)c4ccc(NC[C@H]5CCN(C6COC6)C5)c([N+](=O)[O-])c4)c(Oc4cnc5[nH]ccc5c4)c3)CC2)=C(c2ccc(Cl)cc2)C1` [Example 195, 4-(4-{[2-(4-chlorophenyl)-4,4-dimethylcyclohex-1-en-1-yl]methyl}piperazin-1-yl)-N-{[3-nitro-4-({[(3R)-1-oxetan-3-ylpyrrolidin-3-yl]methyl}amino)phenyl]sulfonyl}-2-(1H-pyrrolo[2,3-b]pyridin-5-yloxy)benzamide] as the compound, how does the Ki read?
Its Ki is less than 10 pM.

`CC1(C)CCC(CN2CCN(c3ccc(C(=O)NS(=O)(=O)c4cnc(NCC5CCOCC5)c(C#N)c4)c(Oc4cnc5[nH]ccc5c4)c3)CC2)=C(c2ccc(Cl)cc2)C1` [Example 106, 4-(4-{[2-(4-chlorophenyl)-4,4-dimethylcyclohex-1-en-1-yl]methyl}piperazin-1-yl)-N-({5-cyano-6-[(tetrahydro-2H-pyran-4-ylmethyl)amino]pyridin-3-yl}sulfonyl)-2-(1H-pyrrolo[2,3-b]pyridin-5-yloxy)benzamide] was tested. Which Ki did it give?
The Ki was 895 pM.

With `CC1(C)CCC(CN2CCN(c3ccc(C(=O)NS(=O)(=O)c4ccc(NCC5CCN(C(CF)CF)CC5)c([N+](=O)[O-])c4)c(Oc4cnc5[nH]ccc5c4)c3)CC2)=C(c2ccc(Cl)cc2)C1` [Example 172, 4-(4-{[2-(4-chlorophenyl)-4,4-dimethylcyclohex-1-en-1-yl]methyl}piperazin-1-yl)-N-({4-[({1-[2-fluoro-1-(fluoromethyl)ethyl]piperidin-4-yl}methyl)amino]-3-nitrophenyl}sulfonyl)-2-(1H-pyrrolo[2,3-b]pyridin-5-yloxy)benzamide] as the compound, how does the Ki read?
The Ki was less than 10 pM.

With `CN(C)CCCOc1ccc(CNc2ccc(S(=O)(=O)NC(=O)c3ccc(N4CCN(CC5=C(c6ccc(Cl)cc6)CC(C)(C)CC5)CC4)cc3Oc3cnc4[nH]ccc4c3)cc2[N+](=O)[O-])cc1` [Example 197, 4-(4-{[2-(4-chlorophenyl)-4,4-dimethylcyclohex-1-en-1-yl]methyl}piperazin-1-yl)-N-{[4-({4-[3-(dimethylamino)propoxy]benzyl}amino)-3-nitrophenyl]sulfonyl}-2-(1H-pyrrolo[2,3-b]pyridin-5-yloxy)benzamide] as the compound, how does the Ki read?
Its Ki is less than 10 pM.

How did the Ki turn out when `CC1(C)CC(c2ccc(Cl)cc2)=C(CN2CCN(c3ccc(C(=O)NS(=O)(=O)c4ccc(N[C@H]5CC[C@@H](N6CCOCC6)CC5)c([N+](=O)[O-])c4)c(Oc4cnc5[nH]ccc5c4)c3)CC2)CO1` [Example 63, Cis-4-(4-{[4-(4-chlorophenyl)-6,6-dimethyl-5,6-dihydro-2H-pyran-3-yl]methyl}piperazin-1-yl)-N-({4-[(4-morpholin-4-ylcyclohexyl)amino]-3-nitrophenyl}sulfonyl)-2-(1H-pyrrolo[2,3-b]pyridin-5-yloxy)benzamide] was run?
The Ki was less than 10 pM.

Which Ki does the source give for `CC1(C)CCC(CN2CCN(c3ccc(C(=O)NS(=O)(=O)c4cnc(OCCC5CCCO5)c(Cl)c4)c(Oc4cnc5[nH]ccc5c4)c3)CC2)=C(c2ccc(Cl)cc2)C1` (centres unmarked) [Example 289, 4-(4-{[2-(4-chlorophenyl)-4,4-dimethylcyclohex-1-en-1-yl]methyl}piperazin-1-yl)-N-({5-chloro-6-[2-(tetrahydrofuran-2-yl)ethoxy]pyridin-3-yl}sulfonyl)-2-(1H-pyrrolo[2,3-b]pyridin-5-yloxy)benzamide] here?
The Ki was 90 pM.

With `CC1(C)CCC(CN2CCN(c3ccc(C(=O)NS(=O)(=O)c4ccc(NCC5CCC(C)(C#N)CC5)c([N+](=O)[O-])c4)c(Oc4cnc5[nH]ccc5c4)c3)CC2)=C(c2ccc(Cl)cc2)C1` (centres unmarked) [Example 366, 4-(4-{[2-(4-chlorophenyl)-4,4-dimethylcyclohex-1-en-1-yl]methyl}piperazin-1-yl)-N-[(4-{[(4-cyano-4-methylcyclohexyl)methyl]amino}-3-nitrophenyl)sulfonyl]-2-(1H-pyrrolo[2,3-b]pyridin-5-yloxy)benzamide] as the compound, how does the Ki read?
Its Ki is 24 pM.

`CC1(C)CCC(CN2CCN(c3ccc(C(=O)NS(=O)(=O)c4ccc(NC[C@@H]5CN(C6CC6)CCO5)c([N+](=O)[O-])c4)c(Oc4cnc5[nH]ccc5c4)c3)CC2)=C(c2ccc(Cl)cc2)C1` [Example 326, 4-(4-{[2-(4-chlorophenyl)-4,4-dimethylcyclohex-1-en-1-yl]methyl}piperazin-1-yl)-N-{[4-({[(2R)-4-cyclopropylmorpholin-2-yl]methyl}amino)-3-nitrophenyl]sulfonyl}-2-(1H-pyrrolo[2,3-b]pyridin-5-yloxy)benzamide] was tested. Which Ki did it give?
The Ki was less than 10 pM.

How did the Ki turn out when `CO[C@H]1CC[C@@H](CNc2ccc(S(=O)(=O)NC(=O)c3ccc(N4CCN(CC5=C(c6ccc(Cl)cc6)CC(C)(C)OC5)CC4)cc3Oc3cnc4[nH]ccc4c3)cc2[N+](=O)[O-])CC1` [Example 72, Cis-4-(4-{[4-(4-chlorophenyl)-6,6-dimethyl-5,6-dihydro-2H-pyran-3-yl]methyl}piperazin-1-yl)-N-[(4-{[(4-methoxycyclohexyl)methyl]amino}-3-nitrophenyl)sulfonyl]-2-(1H-pyrrolo[2,3-b]pyridin-5-yloxy)benzamide] was run?
Its Ki is less than 10 pM.

`O=C(NS(=O)(=O)c1ccc(NCC2CCOCC2)c([N+](=O)[O-])c1)c1ccc(N2CCN(CC3=C(c4ccc(Cl)cc4)CCC(CF)(CF)C3)CC2)cc1Oc1cnc2[nH]ccc2c1` [Example 353, 4-(4-{[2-(4-chlorophenyl)-5,5-bis(fluoromethyl)cyclohex-1-en-1-yl]methyl}piperazin-1-yl)-N-({3-nitro-4-[(tetrahydro-2H-pyran-4-ylmethyl)amino]phenyl}sulfonyl)-2-(1H-pyrrolo[2,3-b]pyridin-5-yloxy)benzamide] was tested. Which Ki did it give?
Its Ki is less than 10 pM.

Same assay, conditions: TR-FRET Bcl-2 Binding Ki

With `CN1CCN(Nc2ccc(S(=O)(=O)NC(=O)c3ccc(N4CCN(CC5=C(c6ccc(Cl)cc6)CC(C)(C)CC5)CC4)cc3Oc3ccc4[nH]ccc4c3)cc2[N+](=O)[O-])CC1` [Example 91, 4-(4-{[2-(4-chlorophenyl)-4,4-dimethylcyclohex-1-en-1-yl]methyl}piperazin-1-yl)-2-(1H-indol-5-yloxy)-N-({4-[(4-methylpiperazin-1-yl)amino]-3-nitrophenyl}sulfonyl)benzamide] as the compound, how does the Ki read?
The Ki was 487 pM.

Same assay, conditions: read-out: Bcl-2 FRET ki

For `CN1CCN(Nc2ccc(S(=O)(=O)NC(=O)c3ccc(N4CCN(CC5=C(c6ccc(Cl)cc6)CC(C)(C)CC5)CC4)cc3Oc3ccc4[nH]ccc4c3)cc2[N+](=O)[O-])CC1` [Example 91, 4-(4-{[2-(4-chlorophenyl)-4,4-dimethylcyclohex-1-en-1-yl]methyl}piperazin-1-yl)-2-(1H-indol-5-yloxy)-N-({4-[(4-methylpiperazin-1-yl)amino]-3-nitrophenyl}sulfonyl)benzamide], which Ki is on record?
Its Ki is 487 pM.
